Several values for one entry are separate records, joined by “and”; a condition that tells them apart may be missing. Equal values may be shown once. Toxic doses and inconclusive results are not listed. No stated cut-off is given here; in the data, active means T/C of 150% or more; inactive means T/C below 125%. Peptide text beside a SMILES is read from it. * marks the point of attachment. Cbz = O=C(OCc1ccccc1)*
Test system: L1210 leukemia ip in BDF1 mice, survival T/C
Assay: NCI In Vivo Anticancer Drug Screen. Data for tumor model L1210 Leukemia (intraperitoneal) in B6D2F1 (BDF1) mice
Settings: endpoint: mean survival time, higher = longer survival
In short: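 Read-out is survival time, reported as the treated-group measurement over the vehicle-control measurement.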

[1] = dose: 50.0 mg/kg/injection, schedule: Q01DX009 (ip), vehicle: Klucel (hydroxypropylcellulose) (HPC)
[2] = dose: 100.0 mg/kg/injection, schedule: Q01DX009 (ip), vehicle: Klucel (hydroxypropylcellulose) (HPC)
[3] = dose: 100.0 mg/kg/injection, schedule: Q04DX002 (ip), vehicle: saline
[4] = dose: 200.0 mg/kg/injection, schedule: Q04DX002 (ip), vehicle: saline
[5] = dose: 400.0 mg/kg/injection, schedule: Q04DX002 (ip), vehicle: saline
[6] = dose: 50.0 mg/kg/injection, schedule: Q01DX009 (ip), vehicle: saline
[7] = dose: 100.0 mg/kg/injection, schedule: Q01DX001 (ip), vehicle: Klucel (hydroxypropylcellulose) (HPC)
[8] = dose: 200.0 mg/kg/injection, schedule: Q01DX001 (ip), vehicle: Klucel (hydroxypropylcellulose) (HPC)
[9] = dose: 100.0 mg/kg/injection, schedule: Q01DX009 (ip), vehicle: saline with Tween-80
[10] = dose: 200.0 mg/kg/injection, schedule: Q01DX009 (ip), vehicle: saline with Tween-80
[11] = dose: 400.0 mg/kg/injection, schedule: Q01DX009 (ip), vehicle: saline with Tween-80
[12] = dose: 100.0 mg/kg/injection, schedule: Q04DX003 (ip), vehicle: saline with Tween-80
[13] = dose: 200.0 mg/kg/injection, schedule: Q04DX003 (ip), vehicle: saline with Tween-80
[14] = dose: 400.0 mg/kg/injection, schedule: Q04DX003 (ip), vehicle: saline with Tween-80
[15] = dose: 12.5 mg/kg/injection, schedule: Q01DX009 (ip), vehicle: saline
[16] = dose: 12.5 mg/kg/injection, schedule: Q04DX003 (ip), vehicle: saline
[17] = dose: 25.0 mg/kg/injection, schedule: Q04DX003 (ip), vehicle: saline

Measured: T/C

COC1=C(O)C(C(O)CO)OC1=O (configuration not stated)
inactive: dose: 25.0 mg/kg/injection, schedule: Q01DX009 (ip), vehicle: water 103 % of control | dose: 50.0 mg/kg/injection, schedule: Q01DX009 (ip), vehicle: water 110 % of control | dose: 100.0 mg/kg/injection, schedule: Q01DX009 (ip), vehicle: water 117 % of control | dose: 200.0 mg/kg/injection, schedule: Q01DX009 (ip), vehicle: water 101 % of control | dose: 400.0 mg/kg/injection, schedule: Q01DX009 (ip), vehicle: water 108 % of control

CCOC(CN=Cc1ccccn1)OCC
inactive: dose: 100.0 mg/kg/injection, schedule: Q04DX003 (ip), vehicle: saline 97 % of control | dose: 200.0 mg/kg/injection, schedule: Q04DX003 (ip), vehicle: saline 91 % of control | dose: 400.0 mg/kg/injection, schedule: Q04DX003 (ip), vehicle: saline 90 % of control

[Cl][Ge]([Cl])([c]1ccccc1)[c]1ccccc1
inactive: [1] 96 % of control | [2] 96 % of control | dose: 100.0 mg/kg/injection, schedule: Q04DX003 (ip), vehicle: Klucel (hydroxypropylcellulose) (HPC) 98 % of control | dose: 200.0 mg/kg/injection, schedule: Q04DX003 (ip), vehicle: Klucel (hydroxypropylcellulose) (HPC) 94 % of control

C/C=C/C=C/COC(=O)CCCCCCCCC
inactive: [3] 100 % of control | [4] 121 % of control | [5] 108 % of control

CN(C)CCC(=O)c1ccc(Cl)cc1
inactive: dose: 50.0 mg/kg/injection, schedule: Q01DX001 (ip), vehicle: saline 101 % of control | [6] 95 % of control and 117 % of control | dose: 100.0 mg/kg/injection, schedule: Q01DX001 (ip), vehicle: saline 101 % of control | dose: 100.0 mg/kg/injection, schedule: Q01DX009 (ip), vehicle: saline 99 % of control and 103 % of control | [3] 95 % of control and 103 % of control | dose: 200.0 mg/kg/injection, schedule: Q01DX001 (ip), vehicle: saline 101 % of control | [4] 93 % of control and 90 % of control

Cc1ccc(S(=O)(=O)NC(Cc2ccccc2)C(=O)Nc2cccnc2)cc1 (configuration not stated)
inactive: [7] 91 % of control | [8] 100 % of control | dose: 400.0 mg/kg/injection, schedule: Q01DX001 (ip), vehicle: Klucel (hydroxypropylcellulose) (HPC) 88 % of control

O=C(OC1c2ccccc2-c2ccccc21)c1cc([N+](=O)[O-])cc([N+](=O)[O-])c1
inactive: [3] 97 % of control | [4] 97 % of control | [5] 90 % of control

c1ccc2c(c1)-c1ccccc1[Si]21c2ccccc2-c2ccccc21
inactive: [9] 97 % of control | [10] 92 % of control | [11] 91 % of control

CNC(=O)Oc1ccccc1CCl
inactive: dose: 50.0 mg/kg/injection, schedule: Q01DX001 (ip), vehicle: Klucel (hydroxypropylcellulose) (HPC) 97 % of control | [7] 97 % of control | [8] 92 % of control

COC(=O)C(NC(=O)C1CCCN1C(=O)OCc1ccccc1)C(C)C (stereo not drawn) (Cbz-Pro-Val-OMe; configuration not given here)
inactive: dose: 25.0 mg/kg/injection, schedule: Q04DX003 (ip), vehicle: saline with Tween-80 95 % of control | dose: 50.0 mg/kg/injection, schedule: Q04DX003 (ip), vehicle: saline with Tween-80 95 % of control | [12] 106 % of control | [13] 95 % of control | [14] 94 % of control

Cc1cccc(NC(=O)OC/C=C/c2ccccc2)c1
inactive: dose: 100.0 mg/kg/injection, schedule: Q01DX001 (ip), vehicle: saline with Tween-80 114 % of control | [9] 102 % of control and 103 % of control | dose: 100.0 mg/kg/injection, schedule: Q04DX002 (ip), vehicle: saline with Tween-80 105 % of control and 108 % of control | [12] 86 % of control | dose: 200.0 mg/kg/injection, schedule: Q01DX001 (ip), vehicle: saline with Tween-80 103 % of control | [10] 95 % of control and 96 % of control | dose: 200.0 mg/kg/injection, schedule: Q04DX002 (ip), vehicle: saline with Tween-80 95 % of control and 105 % of control | [13] 90 % of control | dose: 400.0 mg/kg/injection, schedule: Q01DX001 (ip), vehicle: saline with Tween-80 97 % of control | [11] 90 % of control | dose: 400.0 mg/kg/injection, schedule: Q04DX002 (ip), vehicle: saline with Tween-80 95 % of control and 105 % of control | [14] 86 % of control

Oc1ccc(Nc2ccnc3cc(Cl)ccc23)cc1CN1CCCC1
inactive: [15] 102 % of control | [16] 101 % of control | dose: 25.0 mg/kg/injection, schedule: Q01DX009 (ip), vehicle: saline 102 % of control | [17] 103 % of control | [6] 100 % of control | dose: 50.0 mg/kg/injection, schedule: Q04DX003 (ip), vehicle: saline 97 % of control | dose: 75.0 mg/kg/injection, schedule: Q01DX009 (ip), vehicle: saline 95 % of control | dose: 115.0 mg/kg/injection, schedule: Q01DX009 (ip), vehicle: saline 102 % of control

CS(=O)(=O)Oc1cc(=O)oc2ccccc12
inactive: [1] 103 % of control | [2] 109 % of control

O=C1NC(c2ccccc2)C(=O)N1CCN(CCCl)CCCl (configuration not stated)
inactive: dose: 3.12 mg/kg/injection, schedule: Q01DX009 (ip), vehicle: saline 102 % of control | dose: 3.12 mg/kg/injection, schedule: Q04DX003 (ip), vehicle: saline 98 % of control | dose: 6.25 mg/kg/injection, schedule: Q01DX009 (ip), vehicle: saline 97 % of control | dose: 6.25 mg/kg/injection, schedule: Q04DX003 (ip), vehicle: saline 106 % of control | [15] 100 % of control | [16] 103 % of control | [17] 115 % of control

CC(=O)OC1C=CCC2C(=O)C3=C(C(=O)c4ccccc4C3=O)C(=O)C12 (configuration not stated)
inactive: dose: 0.25 mg/kg/injection, schedule: Q04DX003 (ip), vehicle: saline with Tween-80 93 % of control | dose: 0.5 mg/kg/injection, schedule: Q04DX003 (ip), vehicle: saline with Tween-80 93 % of control | dose: 1.0 mg/kg/injection, schedule: Q04DX003 (ip), vehicle: saline with Tween-80 89 % of control | dose: 2.0 mg/kg/injection, schedule: Q04DX003 (ip), vehicle: saline with Tween-80 97 % of control | dose: 4.0 mg/kg/injection, schedule: Q04DX003 (ip), vehicle: saline with Tween-80 107 % of control | dose: 6.0 mg/kg/injection, schedule: Q04DX003 (ip), vehicle: saline with Tween-80 103 % of control | dose: 8.0 mg/kg/injection, schedule: Q04DX003 (ip), vehicle: saline with Tween-80 98 % of control | dose: 12.0 mg/kg/injection, schedule: Q04DX003 (ip), vehicle: saline with Tween-80 97 % of control | dose: 16.0 mg/kg/injection, schedule: Q04DX003 (ip), vehicle: saline with Tween-80 98 % of control | dose: 24.0 mg/kg/injection, schedule: Q04DX003 (ip), vehicle: saline with Tween-80 97 % of control | dose: 32.0 mg/kg/injection, schedule: Q04DX003 (ip), vehicle: saline with Tween-80 104 % of control | dose: 48.0 mg/kg/injection, schedule: Q04DX003 (ip), vehicle: saline with Tween-80 97 % of control | dose: 64.0 mg/kg/injection, schedule: Q04DX003 (ip), vehicle: saline with Tween-80 100 % of control | dose: 128.0 mg/kg/injection, schedule: Q04DX003 (ip), vehicle: saline with Tween-80 100 % of control

— PubChem BioAssay AID248 (DTP/NCI, 2004)
